The results in this text go back to patent publication US4740233A, “Substituted 1,2,4-triazolo[1,5-a]-pyrimidine-2-sulfonamides and compositions and methods of controlling undesired vegetation and suppressing the nitrification of ammonium nitrogen in soil” (The Dow Chemical Company, priority 1986, dated 1988).

The subject of test [1] is annual sugar beet variety (SLC03). Description: Plant growth regulator activity, preemergence. It counts as in vivo. The note with it: for minimal effective concentration: Beta vulgaris, pre-emergence, 6-7 weeks, read-out: Bolting Inhibition (preemergence), concentration with observed effect; for observed effect (preemergence): 400 ppm. The text has this:
Using a regular biennial variety, even a bolting-susceptible variety would require a cold treatment of around 10-16 weeks plus a hormone treatement in conjunction with specific light intensities. Thus, for a screening organism, we selected one which would consistently produce bolting on a regular schedule. The screen is run with an annual sugar beet variety (SLC03) provided by Dr. Richard J. Hecker, Fort Collins, Colo. This variety is an inbred which bolts in the 6- to 8-leaf stage without any need for vernalization. This allows the screen to be run entirely in the greenhouse with all 110 chemical compounds tested on one tray. The sugarbeets are grown in 3×3 inch square pots in a greenhouse sandy loam potting mix. The sugarbeets are sprayed with test compounds when they are 2 to 3 weeks old (2 true leaves). The compounds are dissolved in acetone and diluted with water containing Tween 20 as a wetting agent. The concentration of acetone in the final spray is 20% and the concentration of Tween 20 is 0.05 percent. The plants are examined for the appearance of a bolt 4 weeks after spraying.
Preemergence tests are conducted by spraying formulated chemical on seeds placed on potting soil. The sprayed seeds are then covered with 1/4 inch of potting soil and the pots are watered. Bolting is evaluated 6-7 weeks after the initiation of the test. At this time untreated plants have a vigorous bolting stem with visible flowers.

Test [2] has as its system nitrification of ammonium nitrogen. In words: Suppression of nitrification of ammonium nitrogen in soil. The note with it: 27° C. The procedure, abridged:
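Soil (20 g) moistened to its 1/3 bar tension value, mixed with test chemical and incubated sealed for two weeks at 27° C. Nitrate extracted with ammonium sulfate solution and measured by nitrate-specific ion electrode; value given as % NH4-N remaining.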

Test [3] concerns barnyardgrass. In words: Control of aquatic plant species (paddy water). The note with it: Echinochloa crus-galli, 216 h, nine days, read-out: Percent control. It counts as in vivo, Echinochloa crusgalli. As to the method: In testing for such utility, the plant species to be tested were transplanted into 16 oz. containers into about 2 inches of soil when they were in the 1-2 inch stage and then flooded to a depth of about 1 inch. An acetone concentrate of the chemical to be tested was then injected into the paddy water, the volume injected being varied as desired to provide the desired concentration. Percent control was evaluated nine days after application.

Another test relates to pigweed. In words: Preemergent control of plant species. The format is in vivo, Amaranthus spp. The note with it: Amaranthus retroflexus, pre-emergence, 336 h; 0.25 lb/acre; read-out: percent preemergent control. The procedure, abridged: (§1)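 Preemergent application of aqueous emulsions at rates given in the table, uniformly over seeded greenhouse soil. Untreated (water) beds as comparison; rating after 2 weeks as reduction in growth.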

In a further test the test system is crabgrass. Description: Preemergent control of plant species. The note with it: Digitaria sanguinalis, pre-emergence, 336 h; 0.25 lb/acre; read-out: percent preemergent control. It counts as in vivo, Digitaria spp. The procedure, abridged: as §1
For a further test, the system named is soybean. Description: Preemergent control of plant species. The format is in vivo, Glycine max. The note with it: Glycine max, pre-emergence, 336 h; 0.25 lb/acre; read-out: percent preemergent control. Summed up: as §1
The next test has as its system sugar beet. In words: Preemergent control of plant species. It counts as in vivo, Beta saccharifera. The note with it: Beta vulgaris, pre-emergence, 336 h; 0.25 lb/acre; read-out: percent preemergent control. Summed up:
as §1

For another test, the system named is johnson grass. In words: Preemergent control of plant species. It counts as in vivo, Sorghum halepense. The note with it: Sorghum halepense, pre-emergence, 336 h; 0.25 lb/acre; read-out: percent preemergent control. The procedure, abridged: as §1
For a further test, the system named is yellow foxtail. In words: Preemergent control of plant species. The format is in vivo, Setaria lutescens. The note with it: Setaria, pre-emergence, 336 h; 0.25 lb/acre; read-out: percent preemergent control. The procedure, abridged: as §1
The test system of another test is sorghum. In words: Preemergent control of plant species. It counts as in vivo, Sorghum vulgare. The note with it: Sorghum, pre-emergence, 336 h; 0.25 lb/acre; read-out: percent preemergent control. The procedure, abridged: as §1
The test system of another test is jimsonweed. In words: Preemergent control of plant species. It counts as in vivo, Datura stramonium. The note with it: Datura stramonium, pre-emergence, 336 h; 0.25 lb/acre; read-out: percent preemergent control. Summed up:
as §1

The next test relates to sprangletop. In words: Control of aquatic plant species (paddy water). The format is in vivo, Leptochloa filiformis. The note with it: Leptochloa filiformis, 216 h, nine days, read-out: Percent control. Summed up:
(§2)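 First, young plants (1-2 inch stage) were set into about 2 inches of soil. Next, pots were flooded to about 1 inch depth. Then acetone concentrate was injected into the water at varying volumes to give the intended concentration. Finally, control was assessed after nine days.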

The subject of the next test is cotton. In words: Preemergent control of plant species. The note with it: Gossypium hirsutum, pre-emergence, 336 h; 0.25 lb/acre; read-out: percent preemergent control. The format is in vivo, Gossypium spp. Summed up:
as §1

The subject of test [4] is yellow nutsedge. Description: Control of aquatic plant species (paddy water). The note with it: Cyperus, 216 h, nine days, read-out: Percent control. The format is in vivo, Cyperus esculentus. Summed up: as §2
Test [5] deals with rice. Description: Preemergent control of plant species. It counts as in vivo, Oryza sativa. The note with it: Oryza sativa, pre-emergence, 336 h; 0.25 lb/acre; read-out: percent preemergent control. Summed up: as §1
A further test has as its system corn. Description: Preemergent control of plant species. The format is in vivo, Zea mays. The note with it: Zea mays, pre-emergence, 336 h; 0.25 lb/acre; read-out: percent preemergent control. Summed up: as §1
A further test concerns velvetleaf. In words: Preemergent control of plant species. It counts as in vivo, Abutilon theophrasti. The note with it: Abutilon theophrasti, pre-emergence, 336 h; 0.25 lb/acre; read-out: percent preemergent control. The procedure, abridged:
as §1

Test [6] deals with rice. Description: Control of aquatic plant species (paddy water). It counts as in vivo, Oryza sativa. The note with it: Oryza sativa, 216 h, nine days, read-out: Percent control. The procedure, abridged:
as §2

Another test relates to wheat. In words: Preemergent control of plant species. The format is in vivo, Triticum aestivum. The note with it: Triticum aestivum, pre-emergence, 336 h; 0.25 lb/acre; read-out: percent preemergent control. The procedure, abridged: as §1
The next test concerns rape. In words: Preemergent control of plant species. The format is in vivo, Brassica napus. The note with it: Brassica napus, pre-emergence, 336 h; 0.25 lb/acre; read-out: percent preemergent control. Summed up:
as §1

A further test deals with annual morning glory. Description: Preemergent control of plant species. It counts as in vivo, Ipomoea spp. The note with it: Ipomoea, pre-emergence, 336 h; 0.25 lb/acre; read-out: percent preemergent control. The procedure, abridged: as §1
Test [7] has as its system barnyardgrass. Description: Preemergent control of plant species. The note with it: Echinochloa crus-galli, pre-emergence, 336 h; 0.25 lb/acre; read-out: percent preemergent control. It counts as in vivo, Echinochloa crusgalli. Summed up:
as §1

A further test relates to wild oats. Description: Preemergent control of plant species. The format is in vivo. The note with it: Avena fatua, pre-emergence, 336 h; 0.25 lb/acre; read-out: percent preemergent control. The procedure, abridged:
as §1

The test system of test [8] is yellow nutsedge. Description: Preemergent control of plant species. It counts as in vivo, Cyperus esculentus. The note with it: Cyperus, pre-emergence, 336 h; 0.25 lb/acre; read-out: percent preemergent control. The procedure, abridged: as §1

Regarding `Cc1cc(C)n2nc(S(=O)(=O)Nc3ccccc3C(=O)c3ccccc3)nc2n1` [Compound 95], in [1], the minimal effective concentration was 400 µg/mL. For the same molecule, the “% NH4-N Remaining After 2 Weeks Incubation” value stood at 26% in test [2] (0.06 ppm), 36% in [2] (0.25 ppm), 53% in test [2] (1 ppm) and 67% in test [2] (4 ppm).

In the case of `CCN(C)S(=O)(=O)c1ccccc1NS(=O)(=O)c1nc2ncc(Cl)cn2n1` [Compound 132], the minimal effective concentration in [1] came out at 400 µg/mL.

Turning to `Cc1cc(C)n2nc(S(=O)(=O)Nc3cc(C(F)(F)F)ccc3Cl)nc2n1` [Compound 52], the minimal effective concentration in [1] was determined as 100 µg/mL. For the same molecule, the “% NH4-N Remaining After 2 Weeks Incubation” value in test [2] (0.01 ppm) is on record as 0%; in test [2] (0.1 ppm), 39%; in [2] (1 ppm), 74%; in test [2] (10 ppm), 91%.

Consider `CSc1cccc(NS(=O)(=O)c2nc3ncc(Cl)cn3n2)c1` [Compound 134], for which, in test [1], the “observed effect (preemergence)” value was “stunting” and the minimal effective concentration turned out to be 400 µg/mL.

`C=CCSc1ccccc1NS(=O)(=O)c1nc2nc(C)cc(C)n2n1` [Compound 66]: the minimal effective concentration in test [1] was 400 µg/mL. The “% NH4-N Remaining After 2 Weeks Incubation” value was 0% in [2] (0.06 ppm), 41% in test [2] (0.25 ppm), 66% in test [2] (1 ppm) and 78% in test [2] (4 ppm).

In the case of `CCN(C)S(=O)(=O)c1ccccc1NS(=O)(=O)c1nc2nc(C)cc(C)n2n1` [Compound 16], the minimal effective concentration in [1] was found to be 400 µg/mL. Further, the “% NH4-N Remaining After 2 Weeks Incubation” value is listed as 0% in [2] (0.01 ppm), 0% in test [2] (0.125 ppm), 26% in [2] (1 ppm) and 67% in [2] (10 ppm).

As to `Cc1cc(C)n2nc(S(=O)(=O)Nc3ccccc3Br)nc2n1` [Compound 41], the pest or weed control at 1000 g/ha was determined as 99% with barnyardgrass [3] (1.0 Kg/Ha), 95% with sprangletop (1.0 Kg/Ha), 80% in the test with yellow nutsedge [4] (1.0 Kg/Ha) and 97% in the test with rice [6] (1.0 Kg/Ha). Besides, the pest or weed control at 280.212 g/ha turned out to be 0% in the test on pigweed; 10% in the test on crabgrass; 35% with johnson grass; 30% with yellow foxtail; 0% in the test with jimsonweed; 10% with velvetleaf. Besides, the pest or weed control at 280.212 g/ha was 10% with annual morning glory, 80% in the test with barnyardgrass [7], 0% in the test on wild oats and 70% in the test on yellow nutsedge [8]. For the same molecule, the plant injury at 280.212 g/ha in the test on soybean was 25%; in the test on sugar beet, 80%; with sorghum, 20%; in the test on cotton, 40%; with rice [5], 0%; in the test with corn, 0%. The plant injury at 280.212 g/ha with wheat is 0%; with rape, 80%. The “% NH4-N Remaining After 2 Weeks Incubation” value is 23% in test [2] (0.06 ppm), 54% in [2] (0.1 ppm), 87% in test [2] (1 ppm) and 100% in [2] (10 ppm).

Take `Cc1cc(C)n2nc(S(=O)(=O)Nc3ccccc3C#N)nc2n1` [Compound 14]: the minimal effective concentration in test [1] was 400 µg/mL. The “% NH4-N Remaining After 2 Weeks Incubation” value in test [2] (0.01 ppm) worked out at 0%; in test [2] (0.1 ppm), 10%; in test [2] (1 ppm), 52%; in test [2] (10 ppm), 77%.

In the case of `O=S(=O)(Nc1ccccc1F)c1nc2ncc(Cl)cn2n1` [Compound 133], in [1], the “observed effect (preemergence)” value is given as “stunting” and the minimal effective concentration turned out to be 400 µg/mL.

For the molecule `Cc1cc(C)n2nc(S(=O)(=O)Nc3c(Cl)cccc3Br)nc2n1` [Compound 39], the pest or weed control at 31 g/ha stood at 20% with barnyardgrass [3] (0.031 Kg/Ha), 0% in the test on sprangletop (0.031 Kg/Ha), 85% in the test on yellow nutsedge [4] (0.031 Kg/Ha) and 0% in the test with rice [6] (0.031 Kg/Ha). In addition, the pest or weed control at 250 g/ha was found to be 99% in the test with barnyardgrass [3] (0.25 Kg/Ha), 75% in the test on sprangletop (0.25 Kg/Ha), 99% with yellow nutsedge [4] (0.25 Kg/Ha) and 75% with rice [6] (0.25 Kg/Ha). Further, the pest or weed control at 280.212 g/ha in the test with pigweed amounted to 100%; in the test with crabgrass, 70%; in the test on johnson grass it was 95%; with yellow foxtail it was 97%; in the test with jimsonweed it was 100%; in the test on velvetleaf, 95%. Besides, the pest or weed control at 280.212 g/ha was found to be 90% with annual morning glory, 97% with barnyardgrass [7], 0% in the test on wild oats and 100% in the test on yellow nutsedge [8]. Besides, the plant injury at 280.212 g/ha is 95% in the test with soybean; 97% in the test with sugar beet; 95% in the test with sorghum; 95% in the test on cotton; 97% with rice [5]; 95% in the test on corn. The results for the plant injury at 280.212 g/ha with wheat and with rape were 0% and 95%, respectively. Also, the “% NH4-N Remaining After 2 Weeks Incubation” value in [2] (0.01 ppm) was determined as 49%; in test [2] (0.1 ppm) it was 78%; in [2] (1 ppm) it was 91%; in test [2] (10 ppm), 100%.
